In patent US20130345218A1 (Vertex Pharmaceuticals Incorporated, priority 2010, published 2013) one finds EC50 and IC50 data, which are given here for 30 compounds.

Test [1] concerns influenza A virus (A/PR/8/34) minus-strand viral RNA. Briefly: microbe, parasite or virus in culture. To be noted: mean EC50 (mean all), viral RNA by bDNA, read-out: bDNA EC50. Type of test: cell-based.
The test system of test [2] is influenza A virus (A/PR/8/34). Kind of test: microbe, parasite or virus in culture. The settings on record: mean IC50 (mean all), MDCK cells, A/PR/8/34, 72 hours, read-out: Flu, MDCK IC50. Format: cell-based.
Setting [3] is: Influenza A virus, PR/8, MDCK, 72 h.

Where two headings read alike, the source gives them in different places.

`C[C@@H]1CCN(C(=O)N[C@@H]2CCC[C@H](Nc3nc(-c4c[nH]c5ncc(F)cc45)c(F)cc3F)C2)C1` [Compound I-16, (R)—N-((1R,3S)-3-((3,5-difluoro-6-(5-fluoro-1H-pyrrolo[2,3-b]pyridin-3-yl)-pyridin-2-yl)amino)cyclohexyl)-3-methylpyrrolidine-1-carboxamide]: the concentration giving a half-maximal response (EC50) (usually the concentration at which the effect is half-maximal) in test [1] (Influenza A virus, PR/8) was < 3.3 µM. For the same compound, the IC50 (as a rule, the midpoint of a concentration-inhibition curve) in test [2] (setting [3]) is < 3.3 µM.
`O=C(O)[C@@H]1C2CCC(CC2)[C@H]1Nc1nc(-c2c[nH]c3ncc(F)cc23)c(F)cc1F` [Compound I-27]: the EC50 in test [1] is < 3.3 µM.
Regarding `O=C(O)[C@@H]1C2CCC(CC2)[C@H]1Nc1cnnc(-c2c[nH]c3ncc(F)cc23)n1` [Compound I-45], in test [1] (Influenza A virus, PR/8), the EC50 is > 3.3 µM. The IC50 in test [2] (setting [3]) was ≥ 3.3 µM.
For the compound `O=C(O)[C@@H]1C2CCC(CC2)[C@H]1Nc1nc(-c2c[nH]c3ncc(F)cc23)c(F)cc1F` [Compound I-26], in test [1] (Influenza A virus, PR/8), the EC50 was < 3.3 µM. The IC50 in test [2] (setting [3]) was < 3.3 µM.
Consider `O=C(O)[C@@H]1C2CCC(CC2)[C@H]1Nc1nc(-c2c[nH]c3ncc(Cl)cc23)c(F)cc1F` [Compound I-32], for which, in test [1] (Influenza A virus, PR/8), the EC50 is < 3.3 µM. The IC50 in test [2] (setting [3]) is < 3.3 µM.
Regarding `N#Cc1cnc(N[C@H]2CCCC[C@@H]2C(=O)O)nc1-c1c[nH]c2ncc(C(F)(F)F)cc12` [Compound I-7, (1S,2S)-2-((5-cyano-4-(5-(trifluoromethyl)-1H-pyrrolo[2,3-b]pyridin-3-yl)pyrimidin-2-yl)amino)cyclohexanecarboxylic acid], the 50% effective concentration (EC50) in test [1] (Influenza A virus, PR/8) is < 3.3 µM. The half-maximal inhibitory concentration (IC50) in test [2] (setting [3]) is < 3.3 µM.
As for `N#Cc1cc(F)c(N[C@H]2CCC[C@@H](NC(=O)N3CC[C@H](F)C3)C2)nc1-c1c[nH]c2ncc(F)cc12` [Compound I-43, (S)—N-((1R,3S)-3-((5-cyano-3-fluoro-6-(5-fluoro-1H-pyrrolo[2,3-b]pyridin-3-yl)pyridin-2-yl)amino)cyclohexyl)-3-fluoropyrrolidine-1-carboxamide], the EC50 in test [1] (Influenza A virus, PR/8) is < 3.3 µM. In test [2] (setting [3]), the half-maximal inhibitory concentration (IC50) was < 3.3 µM.
As to `N#Cc1cnc(N[C@H]2CCC[C@@H](C(=O)O)C2)nc1-c1c[nH]c2ncc(C(F)(F)F)cc12` [Compound I-4, (1R,3S)-3-((5-cyano-4-(5-(trifluoromethyl)-1H-pyrrolo[2,3-b]pyridin-3-yl)pyrimidin-2-yl)amino)cyclohexanecarboxylic acid], the EC50 in test [1] (Influenza A virus, PR/8) was < 3.3 µM. In addition, in test [2] (setting [3]), the 50% inhibitory concentration (IC50) was < 3.3 µM.
As to `N#Cc1cc(F)c(N[C@H]2CCC[C@@H](NC(=O)N3CCOCC3)C2)nc1-c1c[nH]c2ncc(Cl)cc12` [Compound I-11, N-((1R,3S)-3-((6-(5-chloro-1H-pyrrolo[2,3-b]pyridin-3-yl)-5-cyano-3-fluoro-pyridin-2-yl)amino)cyclohexyl)morpholine-4-carboxamide], in test [1] (Influenza A virus, PR/8), the EC50 was < 3.3 µM. In addition, the IC50 in test [2] (setting [3]) is < 3.3 µM.
For `N#Cc1cnc(N[C@H]2CCC[C@@H](C(=O)O)C2)nc1-c1c[nH]c2ncccc12` [Compound I-5], the 50% inhibitory concentration (IC50) in test [2] (setting [3]) is ≥ 3.3 µM.
In the case of `COCC(=O)N[C@@H]1CCC[C@H](Nc2ncc(C#N)c(-c3c[nH]c4ncc(C(F)(F)F)cc34)n2)C1` [Compound I-9, N-((1R,3S)-3-((5-cyano-4-(5-(trifluoromethyl)-1H-pyrrolo[2,3-b]pyridin-3-yl)pyrimidin-2-yl)amino)cyclohexyl)-2-methoxyacetamide], the half-maximal effective concentration (EC50) in test [1] (Influenza A virus, PR/8) was < 3.3 µM. In addition, the IC50 in test [2] (setting [3]) was < 3.3 µM.
For the compound `O=C(N[C@H]1CCC[C@@H](Nc2nc(-c3c[nH]c4ncc(F)cc34)c(C(F)(F)F)cc2F)C1)N1CCOCC1` [Compound I-21], the EC50 in test [1] (Influenza A virus, PR/8) was < 3.3 µM. Besides, the IC50 in test [2] (setting [3]) is < 3.3 µM.
`N#Cc1cnc(N[C@@H]2CCC[C@H](NC(=O)C3CC3)C2)nc1-c1c[nH]c2ncc(C(F)(F)F)cc12` (stereo in doubt) [Compound I-10, N-((1S,3R)-3-((5-cyano-4-(5-(trifluoromethyl)-1H-pyrrolo[2,3-b]pyridin-3-yl)pyrimidin-2-yl)amino)cyclohexyl)cyclopropanecarboxamide]: the EC50 in test [1] (Influenza A virus, PR/8) is < 3.3 µM. Besides, in test [2] (setting [3]), the IC50 is < 3.3 µM.
`O=C(O)C1C2CCC(CC2)C1Nc1cnnc(-c2c[nH]c3ncc(F)cc23)n1` (racemic) [Compound I-42, (+/−)-3-[[3-(5-fluoro-1H-pyrrolo[2,3-b]pyridin-3-yl)-1,2,4-triazin-5-yl]amino]bicyclo[2.2.2]octane-2-carboxylic acid]: in test [1] (Influenza A virus, PR/8), the concentration giving a half-maximal response (EC50) was < 3.3 µM. Moreover, the half-inhibitory concentration (IC50) in test [2] (setting [3]) is < 3.3 µM.
Regarding `NC(=O)c1cc(F)c(N[C@H]2CCC[C@@H](NC(=O)N3CCOCC3)C2)nc1-c1c[nH]c2ncc(F)cc12` [Compound I-13, N-((1R,3S)-3-((5-carbamoyl-3-fluoro-6-(5-fluoro-1H-pyrrolo[2,3-b]pyridin-3-yl)pyridin-2-yl)amino)cyclohexyl)morpholine-4-carboxamide], in test [1] (Influenza A virus, PR/8), the concentration for a half-maximal effect (EC50) is < 3.3 µM. Further, the IC50 in test [2] (setting [3]) is < 3.3 µM.
Take `O=C(N[C@@H]1CCC[C@H](Nc2nc(-c3c[nH]c4ncc(F)cc34)c(F)cc2F)C1)N1CCCC1` [Compound I-15, N-((1R,3S)-3-((3,5-difluoro-6-(5-fluoro-1H-pyrrolo[2,3-b]pyridin-3-yl)pyridin-2-yl)amino)cyclohexyl)pyrrolidine-1-carboxamide]: the EC50 in test [1] (Influenza A virus, PR/8) is < 3.3 µM. For the same compound, in test [2] (setting [3]), the half-maximal inhibitory concentration (IC50) is < 3.3 µM.
Turning to `O=C(O)[C@H]1C2CCC(CC2)[C@@H]1Nc1ncc(F)c(-c2c[nH]c3ncc(F)cc23)n1` (racemic) [Compound I-29, (+/−) trans-3-((5-fluoro-4-(5-fluoro-1H-pyrrolo[2,3-b]pyridin-3-yl)pyrimidin-2-yl)amino)bicyclo[2.2.2]octane-2-carboxylic acid], the EC50 in test [1] (Influenza A virus, PR/8) is < 3.3 µM. In test [2] (setting [3]), the half-inhibitory concentration (IC50) was < 3.3 µM.
With `O=C(N[C@@H]1CCC[C@H](Nc2nc(-c3c[nH]c4ncc(F)cc34)c(C(F)(F)F)cc2F)C1)N1CCCC1` [Compound I-19], the EC50 in test [1] (Influenza A virus, PR/8) was < 3.3 µM. For the same compound, the half-maximal inhibitory concentration (IC50) in test [2] (setting [3]) was < 3.3 µM.
As for `O=C(O)[C@H]1C2CCC(CC2)[C@@H]1Nc1cc(C(F)(F)F)cc(-c2c[nH]c3ncc(F)cc23)n1` [Compound I-40], the EC50 in test [1] (Influenza A virus, PR/8) is < 3.3 µM. Moreover, the IC50 in test [2] (setting [3]) is < 3.3 µM.
Turning to `O=C(N[C@@H]1CCC[C@H](Nc2nc(-c3c[nH]c4ncc(F)cc34)c(C(F)(F)F)cc2F)C1)N1CCCC1` (stereo in doubt) [Compound I-20, N-((1R,3S)-3-((3-fluoro-6-(5-fluoro-1H-pyrrolo[2,3-b]pyridin-3-yl)-5-(trifluoromethyl)-pyridin-2-yl)amino)cyclohexyl)pyrrolidine-1-carboxamide], the EC50 in test [1] (Influenza A virus, PR/8) was < 3.3 µM. Moreover, the IC50 in test [2] (setting [3]) was < 3.3 µM.
`N#Cc1cc(F)c(N[C@H]2C3CCC(CC3)[C@@H]2C(=O)O)nc1-c1c[nH]c2ncc(F)cc12` (racemic) [Compound I-30]: the EC50 in test [1] (Influenza A virus, PR/8) was < 3.3 µM. Besides, the half-inhibitory concentration (IC50) in test [2] (setting [3]) was < 3.3 µM.
`N#Cc1cnc(N[C@H]2CCC[C@@H](C(=O)O)C2)nc1-c1c[nH]c2ncc(Cl)cc12` [Compound I-3, (1R,3S)-3-((4-(5-chloro-1H-pyrrolo[2,3-b]pyridin-3-yl)-5-cyanopyrimidine-2-yl)amino)-cyclohexanecarboxylic acid]: the concentration for a half-maximal effect (EC50) in test [1] (Influenza A virus, PR/8) is < 3.3 µM. The half-inhibitory concentration (IC50) in test [2] (setting [3]) is < 3.3 µM.
As for “3-(2-(5-fluoro-1H-pyrrolo[2,3-b]pyridin-3-yl)pyridin-4-ylamino)bicyclo[2.2.2]octane-2-carboxylic acid [Compound I-49]”, the concentration giving a half-maximal response (EC50) in test [1] is < 3.3 µM. The IC50 in test [2] was < 3.3 µM.
As for `CN(C)C(=O)N[C@@H]1CCC[C@H](Nc2nc(-c3c[nH]c4ncc(F)cc34)c(F)cc2F)C1` [Compound I-17, 3-((1R,3S)-3-((3,5-difluoro-6-(5-fluoro-1H-pyrrolo[2,3-b]pyridin-3-yl)pyridin-2-yl)amino)cyclohexyl)-1,1-dimethylurea], the EC50 in test [1] (Influenza A virus, PR/8) is < 3.3 µM. Besides, the concentration for half-maximal inhibition (IC50) in test [2] (setting [3]) was < 3.3 µM.
With `O=C(O)[C@H]1C2CCC(CC2)[C@@H]1Nc1cnnc(-c2c[nH]c3ncc(F)cc23)n1` [Compound I-46], in test [1] (Influenza A virus, PR/8), the EC50 was < 3.3 µM. In addition, the half-maximal inhibitory concentration (IC50) in test [2] (setting [3]) is < 3.3 µM.
As to `O=C(O)[C@H]1C2CCC(CC2)[C@@H]1Nc1cc(C(F)(F)F)cc(-c2c[nH]c3ncc(F)cc23)n1` (racemic) [Compound I-37, (+/−)-trans-3-((6-(5-fluoro-1H-pyrrolo[2,3-b]pyridin-3-yl)-4-(trifluoro-methyl)pyridin-2-yl)amino)bicyclo[2.2.2]octane-2-carboxylic acid], the concentration for a half-maximal effect (EC50) in test [1] (Influenza A virus, PR/8) was < 3.3 µM. For the same compound, the IC50 in test [2] (setting [3]) is < 3.3 µM.
`O=C(N[C@@H]1CCC[C@H](Nc2nc(-c3c[nH]c4ncc(F)cc34)c(F)cc2F)C1)c1csc(Cl)c1` [Compound I-48, 5-chloro-N-((1R,3S)-3-((3,5-difluoro-6-(5-fluoro-1H-pyrrolo[2,3-b]pyridin-3-yl)pyridin-2-yl)amino)cyclohexyl)thiophene-3-carboxamide]: the half-maximal effective concentration (EC50) in test [1] (Influenza A virus, PR/8) is < 3.3 µM. Moreover, in test [2] (setting [3]), the IC50 is < 3.3 µM.
Consider `N#Cc1cc(F)c(N[C@H]2CCC[C@@H](NC(=O)N3CC[C@@H](F)C3)C2)nc1-c1c[nH]c2ncc(F)cc12` [Compound I-14, (R)—N-((1R,3S)-3-((5-cyano-3-fluoro-6-(5-fluoro-1H-pyrrolo[2,3-b]pyridin-3-yl)pyridin-2-yl)amino)cyclohexyl)-3-fluoropyrrolidine-1-carboxamide], for which the EC50 in test [1] (Influenza A virus, PR/8) was < 3.3 µM. Moreover, the half-inhibitory concentration (IC50) in test [2] (setting [3]) was < 3.3 µM.
Regarding `COC(=O)[C@H]1C2CCC(CC2)[C@@H]1Nc1nc(-c2c[nH]c3ncc(Cl)cc23)c(F)cc1F` [Compound I-33, (2S,3S)-methyl 3-((6-(5-chloro-1H-pyrrolo[2,3-b]pyridin-3-yl)-3,5-difluoropyridin-2-yl)amino)bicyclo[2.2.2]octane-2-carboxylate], the EC50 in test [1] (Influenza A virus, PR/8) was < 3.3 µM. In addition, the half-maximal inhibitory concentration (IC50) in test [2] (setting [3]) is < 3.3 µM.
As to “(+/−)-(exo)-7-((3,5-difluoro-6-(5-fluoro-1H-pyrrolo[2,3-b]pyridin-3-yl)pyridin-2-yl)amino)bicyclo[3.2.2]nonane-6-carboxylic acid [Compound I-36]”, the EC50 in test [1] is < 3.3 µM.
